Results as given in ChEMBL document CHEMBL4152252, “Fluorine walk: The impact of fluorine in quinolone amides on their activity against African sleeping sickness” (Eur J Med Chem, 2018).
Converted amounts (≈) assume the structure as drawn.

Legend:
[1] = Drug level in rat liver microsomes assessed as CYP450-mediated metabolite formation treated with 1-Butyl-6-fluoro-N-(4-fluorobenzyl)-7-morpholino-4-oxo-1,4-dihydroquinoline-3-carboxamide at 100 uM using NADPH/H+ as co-factor after 30 to 90 mins by LC/MSD iom trap method; format: ADME
[2] = Drug level in rat liver cytosol assessed as CYP450-mediated metabolite formation treated with 1-Butyl-6-fluoro-N-(4-fluorobenzyl)-7-morpholino-4-oxo-1,4-dihydroquinoline-3-carboxamide at 100 uM using NADPH/H+ as co-factor after 30 to 90 mins by LC/MSD iom trap method; format: ADME, subcellular
[3] = Stability in rat liver cytosol assessed as compound turnover per mg protein; format: ADME, subcellular
[4] = Half life in rat liver cytosol; format: ADME, subcellular
[5] = Thermodynamic equilibrium solubility of the compound in pH 7.4 phosphate buffered saline after 24 hrs by shake flask method; format: physicochemical; details: read-out: Therm_solubility
[6] = Selectivity index, ratio of CC50 for mouse J774.1 cells to IC50 for trypomastigote forms of Trypanosoma brucei brucei TC 221 assessed as parasite growth inhibition after 48 hrs; format: toxicity; details: read-out: Ratio CC50/IC50
[7] = Octanol/water partition co-efficient, log P of the compound by HPLC based method; format: physicochemical
[8] = tested on: Trypanosoma brucei brucei; test: Antitrypanosomal activity against trypomastigote forms of Trypanosoma brucei brucei TC 221 assessed as parasite growth inhibition after 48 hrs by Alamar blue assay; format: functional, organism-based; details: TC 221, 48 h
[9] = Cytotoxicity against mouse J774.1 cells after 24 hrs by Alamar blue assay; format: cell-based
[10] = tested on: Trypanosoma brucei brucei; test: Antitrypanosomal activity against trypomastigote forms of Trypanosoma brucei brucei TC 221 assessed as parasite growth inhibition after 72 hrs by Alamar blue assay; format: functional, organism-based; details: TC 221, 72 h
[11] = Drug level in rat liver microsomes assessed as CYP450-mediated metabolite formation treated with N-benzyl-1-butyl-5-fluoro-7-morpholino-4-oxo-1,4-dihydroquinoline-3-carboxamide at 100 uM using NADPH/H+ as co-factor after 30 to 90 mins by LC/MSD iom trap method; format: ADME
[12] = Drug level in rat liver cytosol assessed as CYP450-mediated metabolite formation treated with N-benzyl-1-butyl-5-fluoro-7-morpholino-4-oxo-1,4-dihydroquinoline-3-carboxamide at 100 uM using NADPH/H+ as co-factor after 30 to 90 mins by LC/MSD iom trap method; format: ADME, subcellular
[13] = Solubility of the compound in RPMI-1640 medium; format: physicochemical
[14] = Drug level in rat liver cytosol assessed as CYP450-mediated metabolite formation treated with 1-Butyl-5-fluoro-N-(4-fluorobenzyl)-7-morpholino-4-oxo-1,4-dihydroquinoline-3-carboxamide at 100 uM using NADPH/H+ as co-factor after 30 to 90 mins by LC/MSD iom trap method; format: ADME, subcellular
[15] = Drug level in rat liver microsomes assessed as CYP450-mediated metabolite formation treated with 1-Butyl-5-fluoro-N-(4-fluorobenzyl)-7-morpholino-4-oxo-1,4-dihydroquinoline-3-carboxamide at 100 uM using NADPH/H+ as co-factor after 30 to 90 mins by LC/MSD iom trap method; format: ADME
[16] = Drug metabolism in rat liver cytosol assessed as CYP450-mediated oxidative N-dealkylation by measuring 3-(benzylcarbamoyl)-1-ethyl-5-fluoro-7-morpholino-4-oxo-1,4-dihydroquinolinium formation at 100 uM using NADPH/H+ as co-factor after 30 to 90 mins by LC/MSD iom trap method; format: ADME, subcellular
[17] = Drug metabolism in rat liver microsomes assessed as CYP450-mediated amide hydrolysis oxidative N-dealkylation by measuring 3-carbamoyl-5-fluoro-1-methyl-7-morpholino-4-oxo-1,4-dihydroquinolinium formation at 100 uM using NADPH/H+ as co-factor after 30 to 90 mins by LC/MSD iom trap method; format: ADME
[18] = Drug metabolism in rat liver microsomes assessed as CYP450-mediated amide hydrolysis amidase by measuring 1-butyl-3-carbamoyl-5-fluoro-7-morpholino-4-oxo-1,4-dihydroquinolinium formation at 100 uM using NADPH/H+ as co-factor after 30 to 90 mins by LC/MSD iom trap method; format: ADME
[19] = (§1) Drug metabolism in rat liver cytosol assessed as CYP450-mediated (w-1)-oxidation/alipathic hydroxylation by measuring 3-(benzylcarbamoyl)-5-fluoro-1-(3-hydroxybutyl)-7-morpholino-4-oxo-1,4-dihydroquinolinium formation at 100 uM using NADPH/H+ as co-factor after 30 to 90 mins by LC/MSD iom trap method; format: ADME, subcellular
[20] = Drug metabolism in rat liver microsomes assessed as CYP450-mediated oxidative N-dealkylation by measuring 3-(benzylcarbamoyl)-1-ethyl-5-fluoro-7-morpholino-4-oxo-1,4-dihydroquinolinium formation at 100 uM using NADPH/H+ as co-factor after 30 to 90 mins by LC/MSD iom trap method; format: ADME
[21] = Drug metabolism in rat liver cytosol assessed as CYP450-mediated amide hydrolysis oxidative N-dealkylation by measuring 3-carbamoyl-5-fluoro-1-methyl-7-morpholino-4-oxo-1,4-dihydroquinolinium formation at 100 uM using NADPH/H+ as co-factor after 30 to 90 mins by LC/MSD iom trap method; format: ADME, subcellular
[22] = as §1, with “microsomes” for “cytosol”; format: ADME
[23] = Drug metabolism in rat liver cytosol assessed as CYP450-mediated amide hydrolysis amidase by measuring 1-butyl-3-carbamoyl-5-fluoro-7-morpholino-4-oxo-1,4-dihydroquinolinium formation at 100 uM using NADPH/H+ as co-factor after 30 to 90 mins by LC/MSD iom trap method; format: ADME, subcellular
[24] = Drug uptake in brain of B6/J mouse at 19.3 +/- 2.3 MBq, iv after 60 mins by autoradiography; format: ADME, organism-based; details: in vivo, 1 h

SMILES	selectivity ratio at 48 h [6]	logP [7]	IC50 [8] [nM]	CC50 at 24 h [9] [nM]	IC50 [10] [nM]	also measured
CCCCn1cc(C(=O)O)c(=O)c2cc(F)c(N3CCOCC3)cc21						Drug metabolism [1]: Metabolite_Detected; Drug metabolism [2]: Metabolite_Detected
CCCCn1cc(C(=O)NCc2ccccc2)c(=O)c2cc(F)c(N3CCOCC3)cc21						Drug metabolism [3]: 47.11 pmol/min/mg protein; half-life [4]: 5.8 h; solubility thermodynamic at 24 h [5]: 0.005 µg/mL (≈ 0.0114 µM)
CCCCn1cc(C(=O)NCc2ccccc2)c(=O)c2cc(C(F)(F)F)c(N3CCOCC3)cc21	146	4.18	540	78600	590	
CCCCn1cc(C(=O)NCc2ccccc2)c(=O)c2cc(OC)c(N3CCOCC3)cc21	135	3.73	310	42000	240	solubility thermodynamic at 24 h [5]: 2.73 µg/mL (≈ 6.07 µM)
Cn1cc(C(=O)NCc2ccc(F)cc2)c(=O)c2cc(F)c(N3CCOCC3)cc21						Drug metabolism [1]: Metabolite_Detected; Drug metabolism [2]: Metabolite_Detected
CCCCn1cc(C(=O)NCc2ccccc2)c(=O)c2ccc(N3CCOCC3)cc21	> 435	3.51	230	> 100000	200	solubility thermodynamic at 24 h [5]: 1.36 µg/mL (≈ 3.24 µM)
CC(O)CCn1cc(C(=O)NCc2ccc(F)cc2)c(=O)c2cc(F)c(N3CCOCC3)cc21 (stereo unspecified)						Drug metabolism [1]: Metabolite_Detected; Drug metabolism [2]: Metabolite_Detected
CC(O)CCn1cc(C(=O)NCc2ccccc2)c(=O)c2c(F)cc(N3CCOCC3)cc21 (stereo unspecified)						Drug metabolism [11]: Metabolite_Detected; Drug metabolism [12]: Metabolite_Detected
O=C(NCc1ccccc1)c1cn(CCCF)c2cc(N3CCOCC3)c(F)cc2c1=O	353	3.34	120	42400	170	solubility thermodynamic at 24 h [5]: 1.41 µg/mL (≈ 3.19 µM)
CCCCn1cc(C(=O)NCc2ccccc2)c(=O)c2cc(F)c(N3CCOCC3)c(F)c21	> 333	4.57	60	> 20000	200	solubility [13]: Insoluble
CCn1cc(C(=O)NCc2ccc(F)cc2)c(=O)c2c(F)cc(N3CCOCC3)cc21						Drug metabolism [14]: Metabolite_Detected; Drug metabolism [15]: Metabolite_Detected
CCCCn1cc(C(=O)NCc2ccccc2)c(=O)c2c(OC)cc(N3CCOCC3)cc21	68		760	51800	650	
Cn1cc(C(N)=O)c(=O)c2c(F)cc(N3CCOCC3)cc21						Drug metabolism [11]: Metabolite_Detected; Drug metabolism [12]: Metabolite_Detected
CCCCn1cc(C(N)=O)c(=O)c2c(F)cc(N3CCOCC3)cc21						Drug metabolism [11]: Metabolite_Detected; Drug metabolism [12]: Metabolite_Detected
CCCCn1cc(C(=O)NCc2ccccc2)c(=O)c2c(F)c(F)c(N3CCOCC3)cc21	> 625	3.97	40	> 25000	30	solubility [13]: Insoluble
CCn1cc(C(=O)NCc2ccccc2)c(=O)c2c(F)cc(N3CCOCC3)cc21						Drug metabolism [11]: Metabolite_Detected; Drug metabolism [12]: Metabolite_Detected
CCCCn1cc(C(=O)NCc2ccccc2F)c(=O)c2cc(F)c(N3CCOCC3)cc21	90		410	37000	460	
CCCCn1cc(C(=O)NCc2ccc(F)cc2F)c(=O)c2cc(F)c(N3CCOCC3)cc21	1990		30	59600	30	Drug metabolism [3]: 5.94 pmol/min/mg protein
O=C(NCc1ccc(F)cc1)c1c[nH]c2cc(N3CCOCC3)c(F)cc2c1=O						Drug metabolism [1]: Metabolite_Detected; Drug metabolism [2]: Metabolite_Detected
O=C(NCc1ccccc1)c1cn(CCCOCc2ccccc2)c2cc(N3CCOCC3)c(F)cc2c1=O		3.9		> 100000		
CCCCn1cc(C(=O)NCc2ccccc2)c(=O)c2c(F)cc(N3CCOCC3)cc21	> 2000	3.36	50	> 100000	80	Drug metabolism [16]: Metabolite_Detected; Drug metabolism [3]: 4.3 pmol/min/mg protein; Drug metabolism [17]: Metabolite_Detected; Drug metabolism [18]: Metabolite_Detected; Drug metabolism [19]: Metabolite_Detected; Drug metabolism [20]: Metabolite_Detected; half-life [4]: 7.2 h; Drug metabolism [21]: Metabolite_Detected; solubility thermodynamic at 24 h [5]: 0.12 µg/mL (≈ 0.274 µM); Drug metabolism [22]: Metabolite_Detected; Drug metabolism [23]: Metabolite_Detected
CCCCn1cc(C(=O)NCc2ccccc2)c(=O)c2ccc(N3CCOCC3)c(F)c21	> 32	4.09	790	> 25000	860	solubility [13]: Insoluble; solubility thermodynamic at 24 h [5]: 0.23 µg/mL (≈ 0.526 µM)
CCCCn1cc(C(=O)O)c(=O)c2c(F)cc(N3CCOCC3)cc21						Drug metabolism [14]: Metabolite_Detected; Drug metabolism [15]: Metabolite_Detected
O=C(NCc1ccccc1)c1cn(CCCO)c2cc(N3CCOCC3)c(F)cc2c1=O	160	3.04	270	43100	550	solubility thermodynamic at 24 h [5]: 18.7 µg/mL (≈ 42.5 µM)
O=C(NCc1ccc(F)cc1)c1c[nH]c2cc(N3CCOCC3)cc(F)c2c1=O						Drug metabolism [14]: Metabolite_Detected; Drug metabolism [15]: Metabolite_Detected
CCCCn1cc(C(=O)NCc2ccccc2)c(=O)c2c(N(C)C)cc(N3CCOCC3)cc21	24		1850	44000	4800	
Cn1cc(C(=O)NCc2ccc(F)cc2)c(=O)c2c(F)cc(N3CCOCC3)cc21						Drug metabolism [14]: Metabolite_Detected; Drug metabolism [15]: Metabolite_Detected
O=C(NCc1ccccc1)c1cn(CCC[18F])c2cc(N3CCOCC3)c(F)cc2c1=O						Drug uptake [24]: Active
